Data set [1] concerns renal function in anesthetized rats. The following applies: for Na+ excretion / free water clearance / urine flow rate / urine osmolality: anesthetized rats; for glomerular filtration rate (GFR): rat, in vivo. How it is done:
NaCl reabsorption in the thick ascending limb of the Loop of Henle (TALH) creates free water that is reabsorbed in the collecting duct in the presence of vasopressin. […] Either V (3 mg/kg), F (5 mg/kg), both V and F (V/F) or the vehicles were administered intraduodenally.

Data set [2] is described as follows: Human single dose crossover drug interaction study, pharmacokinetics. Type of data set: in vivo. On the procedure:
(§1) The study lasted approximately 30 days, and included a pre-enrollment evaluation of up to 2 weeks before dose administration, and three 2-day (2-night) confinement periods. The doses were separated by at least a 1 week interval. The clinical portion of the study was completed in approximately 2 months.
(§2) The VPA-985 suspension (25 mg and 50 mg powder reconstituted) was administered in 150 mL of Sprite® brand lemon-lime soda (a product of The Coca-Cola Company) followed by 100 mL of room-temperature water (250 mL of fluid total).
(§3) Areas under concentration-time curves(AUCT) (AUC) and AUC truncated at the last observed concentration (CT)AUCT) were determined by using the linear/log trapezoidal method. Statistical comparisons were made using by an analysis of variance (ANOVA). Confidence limits (90%) for pharmacokinetic parameters were constructed on a log scale using the two one-sided tests procedure. An interaction was judged to be significant if a 35% difference was detected between either single agent and the two drugs administered concomitantly.

In data set [3] the test system is healthy men. Briefly: Human single dose crossover drug interaction study, pharmacodynamics (urine flow, electrolytes). In kind it is in vivo. The settings on record: for mean urine volume: 0 to 4 h interval, single oral doses VPA-985 75 mg; for mean urine volume / peak urine flow: furosemide 40 mg, or both; for peak urine flow: single oral doses: VPA-985 75 mg. How it is done: as §1, §2, §3

The mark [4] stands for this setting: after intraduodenal administration (V 3 mg/kg, F 5 mg/kg).
Where [5] appears, read: baseline, before compound administration.
Where [6] appears, read: VPA-985 75 mg administered with furosemide 40 mg.
Where [7] appears, read: after coadministration with VPA-985 75 mg.

SMILES strings stand for the structures. Read-outs that look alike come from different tables or passages of the source.

As to `Cc1ccc(F)cc1C(=O)Nc1ccc(C(=O)N2Cc3cccn3Cc3ccccc32)c(Cl)c1` [VPA-985, N-[4-(5H-pyrrolo[2,1-c][1,4]benzodiazepin-10(11H)ylcarbonyl)-3-chlorophenyl]-5-fluoro-2-methyl-benzamide], in data set [1] (setting [4]), the “Na+ excretion” value was 0.67±0.34 μEq/min, the free water clearance was -6.96 ± 5.17 µL/min, the urine flow rate turned out to be 19.51 ± 3.80 µL/min and the urine osmolality was determined as 571±145 mOsm/kg. In addition, in data set [1] (setting [5]), the “Na+ excretion” value stood at 0.10±0.02 μEq/min, the free water clearance was -17.31 ± 1.84 µL/min, the urine flow rate was 5.26 ± 1.13 µL/min and the urine osmolality amounted to 1456±166 mOsm/kg. In data set [1], this compound returned a glomerular filtration rate (GFR) of 2.04 ± 0.15 mL/min. Besides, in data set [2] (setting [6]), the “AUCs of VPA-985, compared to VPA-985 alone” value is listed as “no differences” and the “Cmax of VPA-985, compared to VPA-985 alone” value is listed as “no differences”. The AUC in data set [2] (male, human, in vivo, single oral dose VPA-985 75-mg suspension alone, healthy men) is 968 ng·h/mL. In data set [2] (male, human, in vivo, single oral dose VPA-985 75-mg suspension alone, healthy men, read-out: mean peak concentration (Cmax) of VPA-985), the Cmax amounted to 617 ng/mL. Moreover, in data set [2] (male, human, in vivo, single oral dose VPA-985 75-mg suspension alone, healthy men, read-out: mean time of peak concentration (tmax) of VPA-985), the Tmax was less than 1 h. The compound also yielded a mean urine volume in data set [3] of 1157 mL. The “increase in mean serum sodium” value in data set [3] (0 to 4 hours after the dose) worked out at 2 mmol/L. Further, the “0 to 4 h urinary excretion of sodium, potassium, chloride and magnesium” value in data set [3] (VPA-985 alone compared with VPA-985 and furosemide administered concomitantly) is listed as “significantly less”. The “tmax of peak effect in urine flow” value in data set [3] (after administration of single doses, healthy men) is given as “approximately 1.5 h”. Besides, in data set [3] (single oral dose VPA-985 75 mg alone), the “effect on serum potassium” value was “did not alter”. This compound also displayed a peak urine flow in data set [3] (healthy men) of 8.4 mL/min.

In data set [1] (setting [4]), `NS(=O)(=O)c1cc(C(=O)O)c(NCc2ccco2)cc1Cl` [furosemide, reference compound] displayed a urine flow rate of 17.02 ± 4.86 µL/min and a urine osmolality of 699±69 mOsm/kg. In data set [1] (setting [5]), the urine flow rate was determined as 3.74 ± 0.18 µL/min and the urine osmolality is reported as 1515±96 mOsm/kg. In data set [1], this compound showed a glomerular filtration rate (GFR) of 1.87 ± 0.15 mL/min. In data set [2] (setting [7]), the “CLr of furosemide, versus furosemide alone” value is reported as “no difference” and the “amount of furosemide recovered from urine (Ut), versus furosemide alone” value was “no difference”. In addition, the mean urine volume in data set [3] was 1524 mL. Besides, in data set [3] (at 0 h), the serum potassium was found to be 4.2 mmol/L. This compound yielded a serum potassium in data set [3] (at 4 hours after the dose) of 3.9 mmol/L. Besides, the peak urine flow in data set [3] (healthy men) came out at 9.3 mL/min.

(Values after patent publication US6656931B2, “Vasopressin antagonist and diuretic combination” (Wyeth Holdings Corporation, priority 1999, dated 2003).)
